We go through 1 compound from patent US20190119635A1, “MODULATION OF T LYMPHOCYTES” (Fate Therapeutics, Inc., priority 2015, published 2019).

Structures are written as SMILES.

This assay concerns CD3+ T-cells pre-isolated from human peripheral blood. Kind of assay: Gene expression panel of CD3+ T-cells treated with dmPGE2 (Affymetrix U133 plus 2.0 GeneChip). In kind it is cell-based. Conditions: 10 μM dmPGE2, 2 hours at 37° C.; genes ATF3, CREM, GEM, CXCL2, MMP9, PLAUR, AREG, BCL2A1, DUSP4, FOS, FOSL2, JUN, MYC, NR4A2, NR4A3, SOCS1, SOCS3, ULBP2; mean of 3 donors; FIG. 1.

Experimental: RNA was extracted from CD3+ T-cells pre-isolated from human peripheral blood (AllCells, Aiameda CA) (n=3 donors) post ex vivo treatment (2 hours at 37° C. in StemSpan-ACF (StemCell Technologies, Vancouver, Canada)) with 10 μM dmPGE2 (Fate therapeutics, San Diego, Calif.) or vehicle control (DMSO).
Following cell treatments, levels mRNA were quantitated from PicoPure isolated mRNA (Life Technologies, Carlsbad, Calif.) using Affymetrix GeneChip technology. Affymetrix U133 plus 2.0 GeneChip hybridization of all samples was performed in accordance with the manufacturer's recommendations (Affymetrix, Santa Clara, Calif.), involving roughly 200 ng of total RNA and Message Amp II (Life Technologies, Carlsbad, Calif.) standard two round amplification protocols. Probe intensities were normalized according to a log scale robust multi-array analysis (RMA) method (Affymetrix Santa Clara, Calif.). A parametric paired t-test (Benjamini-Hochberg false discovery rate <0.05, adjusted p-value/q-value <0.05, and fold change > or <2 fold) detected probes with significant changes due to the treatment with dmPGE2 and dexamethasone.
The probe intensities were converted into linear fold changes of relative expression levels of mRNA by comparison of dmPGE2 and dexamethasone treated CD3+ T-cells in comparison to the vehicle treated control samples. […]

Turning to `CCCCC(C)(C)[C@H](O)/C=C/[C@H]1[C@H](O)CC(=O)[C@@H]1C/C=C\CCCC(=O)O` [dmPGE2, 16,16-dimethyl PGE2], the “statistically significant increase in expression (linear fold change of mRNA vs vehicle control)” value is “at least 2 fold”.
